Columns and labels:
[1] = system: green peach aphid (Myzus persicae); test: Green peach aphid systemic test, artificial diet in 96-well microtiter plates; format: in vivo; details: 72 h, adult aphids on treated artificial diet, 3 days, read-out: mortality in comparison with untreated controls
From the text: Green Peach Aphid (Myzus persicae):
For evaluating control of green peach aphid (Myzus persicae) through systemic means the test unit consisted of 96-well-microtiter plates containing liquid artificial diet under an artificial membrane.
The compounds were formulated using a solution containing 75% v/v water and 25% v/v DMSO. Different concentrations of formulated compounds were pipetted into the 30 aphid diet, using a custom built pipetter, at two replications.
After application, 5-8 adult aphids were placed on the artificial membrane inside the microtiter plate wells. The aphids were then allowed to suck on the treated aphid diet and incubated at about 23˜1° C. and about 50˜5% relative humidity for 3 days. Aphid mortality and fecundity was then visually assessed.

[2] = system: vetch aphid (Megoura viciae); test: Vetch aphid contact or systemic test, broad bean leaf disks in 24-well microtiter plates; format: in vivo; details: foliar, 120 h, sprayed broad bean leaf disks, adult aphids, 5 days, read-out: mortality in comparison with untreated controls
Experimental: Vetch Aphid (Megoura viciae):
For evaluating control of vetch aphid (Megoura viciae) through contact or systemic means the test unit consisted of 24-well-microtiter plates containing broad bean leaf disks.
The compounds were formulated using a solution containing 75% v/v water and 25% v/v DMSO. Different concentrations of formulated compounds were sprayed onto the leaf disks at 2.5 μl, using a custom built micro atomizer, at two replications. After application, the leaf disks were air-dried and 5-8 adult aphids placed on the leaf disks inside the microtiter plate wells. The aphids were then allowed to suck on the treated leaf disks and incubated at about 23+1° C. and about 50+5% relative humidity for 5 days. Aphid mortality and fecundity was then visually assessed.

Structure (SMILES): Cn1c(C(=O)CCl)c([O-])[n+]2c1SCC2c1cnc(Cl)s1 (centres unmarked) [C-1, 6-(2-chloroacetyl)-3-(2-chlorothiazol-5-yl)-7-methyl-2,3-dihydroimidazo[2,1-b]thiazol-4-ium-5-olate]
- mortality at 2500 ppm [1]: > 75%
- mortality at 2500 ppm [2]: > 75%

— patent US20210179620A1, “MESOIONIC I[…] AND DERIVATIVES FOR COMBATING ANIMAL PESTS” (BASF SE, priority 2017, published 2021)
